Patent CN114306288A, “一种卡巴拉汀长效经皮吸收贴剂及其制备方法” (priority 2022, dated 2022)

Experiment: In vitro transdermal permeation test (Franz horizontal two-chamber diffusion cell, pig ear skin)
Type: in vitro ADME
Settings: Examples 33-38, compared with no enhancer; 0.1 g enhancer, 1 mmol rivastigmine salicylate ionic liquid in 2 g adhesive (Example 10); result in words

Structure (SMILES)	promotion of rivastigmine cumulative permeation amount by transdermal absorption enhancer
CCCCCCCC/C=C\CCCCCCCC(=O)O [油酸]	没有显著促进
CC1CCC(C(C)C)C(O)C1 (centres unmarked) [薄荷醇]	没有显著促进
